Results reported in PMC10222328 (Pharmaceuticals, 2023).

Legend:
[1] = test system: carrageenan-induced rat paw edema; assay: Carrageenan-induced rat paw edema model; type: in vivo, Wistar albino rats; conditions: for Rat paw thickness: mean ± SD; for inhibition in vivo at 2.5 mg/kg / inhibition in vivo at 5 mg/kg / inhibition in vivo at 10 mg/kg: Rattus norvegicus, po
Description: In vivo assessment of anti-inflammatory activity of compounds 1–7 was conducted in the carrageenan-induced rat paw edema model. Inflammation in all rats was induced by an intraplantar injection of […] of 0.5% carrageenan saline in the left hind paw. Two hundred male Wistar albino rats (180–210 g) were divided into seven experimental (n = 168 rats, 8 rats per subgroup) and two control groups (n = 32 rats, 8 rats per subgroup).
Experimental groups involved rats that received compounds 1–7, and they were divided into three subgroups: rats received compounds 1–7 per os in three doses (2.5 mg/kg, 5 mg/kg, and 10 mg/kg) dissolved in 1% DMSO for 60 min before inducing inflammation.
In order to quantify the anti-inflammatory effect, the thickness of the left paw tissue of each rat was measured at the following time intervals: immediately before inducing inflammation (moment 0) and 1, 2, 3, and 4 h (moments 1, 2, 3, and 4) after inflammation. Tissue thickness was measured in the middle of the rat paw using a digital vernier caliper (Aerospace, Beijing, China).

COX-2 = target: T1, COX-2 (Homo sapiens, UniProt P35354); assay: Fluorometric COX-2 inhibitor screening kit; type: biochemical
T1 construct: purchased Abcam, UK
T1 sequence (P35354 18-604): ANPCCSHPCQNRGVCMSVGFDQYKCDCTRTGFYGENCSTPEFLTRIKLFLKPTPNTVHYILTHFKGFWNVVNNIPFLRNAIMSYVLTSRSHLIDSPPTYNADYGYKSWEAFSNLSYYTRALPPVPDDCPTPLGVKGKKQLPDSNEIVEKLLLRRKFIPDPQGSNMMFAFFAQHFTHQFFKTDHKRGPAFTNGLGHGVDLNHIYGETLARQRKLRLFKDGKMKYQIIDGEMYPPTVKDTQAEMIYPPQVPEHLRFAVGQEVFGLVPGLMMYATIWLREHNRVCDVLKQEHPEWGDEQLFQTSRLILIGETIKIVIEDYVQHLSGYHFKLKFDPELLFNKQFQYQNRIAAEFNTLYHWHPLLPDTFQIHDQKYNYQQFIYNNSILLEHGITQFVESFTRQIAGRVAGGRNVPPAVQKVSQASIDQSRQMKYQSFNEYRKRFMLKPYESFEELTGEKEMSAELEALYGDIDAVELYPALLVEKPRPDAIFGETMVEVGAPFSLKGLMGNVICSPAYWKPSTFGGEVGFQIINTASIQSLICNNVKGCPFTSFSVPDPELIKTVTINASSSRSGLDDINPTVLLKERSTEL
Description: (§1) COX-2 and 5-LOX inhibitory activities were tested using fluorometric COX-2 and 5-LOX inhibitor screening kits (Abcam, UK). These assays are based on the fluorometric detection of Prostaglandin G2 (a product generated by the COX enzyme) or on the fluorometric detection of intermediate generated by the 5-LOX enzyme. The experiments were conducted according to the manufacturers’ instructions.
(§2) For the determination of COX-2 inhibitory activity, tested compounds were dissolved in DMSO (5 mM stock solutions) and then diluted with the same solvent to obtain test solutions. Test solutions were further diluted 5X with COX assay buffer (2 µL of test solution and 8 µL COX assay buffer). […] Solvent control (SC) was prepared by adding 2 µL DMSO and 8 µL COX assay buffer, while sample (S) and enzyme control (EC) were prepared by adding 10 µL of diluted test solution and COX assay buffer, respectively, into assigned wells. For the determination of 5-LOX inhibitory activity, tested compounds were also dissolved in DMSO to prepare stock solutions with the same concentration (5mM), which were then diluted with the same solvent to obtain test solutions. Subsequently, test solutions were added to corresponding wells (2 µL).

COX-1 = COX-1 over COX-2; cited from earlier work
5-LOX = target: T2, 5-LOX (Homo sapiens, UniProt P09917); assay: Fluorometric 5-LOX inhibitor screening kit; type: biochemical; conditions: at 10 µM; mean ± standard error of two measurements; read-out: 5-LOX Percent of Inhibition
T2 construct: purchased Abcam, UK
T2 sequence (P09917 1-674): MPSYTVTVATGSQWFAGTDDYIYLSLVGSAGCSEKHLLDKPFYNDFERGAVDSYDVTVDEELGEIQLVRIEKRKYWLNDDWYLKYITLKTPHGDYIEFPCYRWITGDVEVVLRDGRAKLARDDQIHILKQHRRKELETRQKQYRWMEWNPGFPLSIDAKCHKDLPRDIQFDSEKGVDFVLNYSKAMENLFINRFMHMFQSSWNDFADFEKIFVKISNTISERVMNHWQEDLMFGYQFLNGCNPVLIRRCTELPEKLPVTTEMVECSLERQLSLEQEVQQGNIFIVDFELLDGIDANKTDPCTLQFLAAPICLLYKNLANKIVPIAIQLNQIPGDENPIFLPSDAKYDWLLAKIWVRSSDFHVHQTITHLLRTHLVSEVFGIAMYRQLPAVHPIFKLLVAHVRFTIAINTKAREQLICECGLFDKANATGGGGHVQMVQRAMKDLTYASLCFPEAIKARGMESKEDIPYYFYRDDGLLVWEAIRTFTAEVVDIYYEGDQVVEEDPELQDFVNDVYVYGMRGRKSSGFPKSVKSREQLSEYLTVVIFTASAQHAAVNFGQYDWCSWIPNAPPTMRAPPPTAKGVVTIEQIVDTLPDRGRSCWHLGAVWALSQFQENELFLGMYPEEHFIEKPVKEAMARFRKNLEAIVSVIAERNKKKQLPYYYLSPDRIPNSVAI
Description: as §1, §2

COc1ccc2cc([C@H](C)C(=O)O)ccc2c1 [Naproxen, reference compound]
Rat paw thickness ([1]; 2.5 mg/kg per os, 1 h after carrageenan): 6.20 ± 0.10 mm | Rat paw thickness ([1]; 2.5 mg/kg per os, 2 h after carrageenan): 5.87 ± 0.12 mm | Rat paw thickness ([1]; 2.5 mg/kg per os, 3 h after carrageenan): 5.60 ± 0.17 mm | Rat paw thickness ([1]; 2.5 mg/kg per os, 4 h after carrageenan): 5.03 ± 0.25 mm | Rat paw thickness ([1]; 5.0 mg/kg per os, 1 h after carrageenan): 5.87 ± 0.23 mm | Rat paw thickness ([1]; 5.0 mg/kg per os, 2 h after carrageenan): 5.37 ± 0.31 mm | Rat paw thickness ([1]; 5.0 mg/kg per os, 3 h after carrageenan): 5.07 ± 0.35 mm | Rat paw thickness ([1]; 5.0 mg/kg per os, 4 h after carrageenan): 4.83 ± 0.21 mm | Rat paw thickness ([1]; 10.0 mg/kg per os, 1 h after carrageenan): 5.73 ± 0.20 mm | Rat paw thickness ([1]; 10.0 mg/kg per os, 2 h after carrageenan): 5.40 ± 0.40 mm | Rat paw thickness ([1]; 10.0 mg/kg per os, 3 h after carrageenan): 5.20 ± 0.30 mm | Rat paw thickness ([1]; 10.0 mg/kg per os, 4 h after carrageenan): 4.80 ± 0.40 mm | inhibition in vivo at 2.5 mg/kg ([1]; 1 h, 2.5 mg/kg per os, 1 h after carrageenan): 18.9% | inhibition in vivo at 5 mg/kg ([1]; 1 h, 5.0 mg/kg per os, 1 h after carrageenan): 27.1% | inhibition in vivo at 10 mg/kg ([1]; 1 h, 10.0 mg/kg per os, 1 h after carrageenan): 35.4% | inhibition in vivo at 2.5 mg/kg ([1]; 2 h, 2.5 mg/kg per os, 2 h after carrageenan): 24.9% | inhibition in vivo at 5 mg/kg ([1]; 2 h, 5.0 mg/kg per os, 2 h after carrageenan): 41.8% | inhibition in vivo at 10 mg/kg ([1]; 2 h, 10.0 mg/kg per os, 2 h after carrageenan): 43.3% | inhibition in vivo at 2.5 mg/kg ([1]; 3 h, 2.5 mg/kg per os, 3 h after carrageenan): 25.1% | inhibition in vivo at 5 mg/kg ([1]; 3 h, 5.0 mg/kg per os, 3 h after carrageenan): 47.1% | inhibition in vivo at 10 mg/kg ([1]; 3 h, 10.0 mg/kg per os, 3 h after carrageenan): 45.2% | inhibition in vivo at 2.5 mg/kg ([1]; 4 h, 2.5 mg/kg per os, 4 h after carrageenan): 44.8% | inhibition in vivo at 5 mg/kg ([1]; 4 h, 5.0 mg/kg per os, 4 h after carrageenan): 49.4% | inhibition in vivo at 10 mg/kg ([1]; 4 h, 10.0 mg/kg per os, 4 h after carrageenan): 56.3% | IC50 (COX-2): 0.2 ± 0.02 µM | inhibition at 10 µM (COX-2; read-out: COX-2 Percent of Inhibition): 72.2 ± 1.4% | Selectivity for COX-1 (COX-1): approximately five

CC(c1cc2ccccc2s1)N(O)C(N)=O (stereo not shown) [Zileuton, reference compound]
inhibition at 10 µM (5-LOX): 64.85 ± 0.39%
